Results taken from patent US20230278972A1, “SUBSTITUTED HALOALKYL SULFONANILIDE HERBICIDES” (FMC Corporation, priority 2020, published 2023).

Columns and labels:
Assay type in all cases: in vivo
[1] = system: blackgrass (Alopecurus myosuroides); assay: Test A1 preemergence, blackgrass
Procedure, shortened: (§1)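 Plants grown in pots of loam/sand mix; preemergence = soil-directed spray on seeded pots, postemergence = spray at 1–2 leaves, height 2–10 cm; test chemicals formulated in non-phytotoxic solvent with surfactant.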

corn (Zea mays) [2] = assay: Test A1 preemergence, corn
Procedure, shortened: (§2)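 Plants were grown in a loam soil/sand blend, with test chemicals formulated in a non-phytotoxic solvent mixture containing surfactant. Preemergence treatment (corn) was a directed soil spray at planting. Postemergence treatment was applied to plants 2 to 10 cm tall at the one- to two-leaf stage.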

[3] = system: Foxtail, Giant (giant foxtail, Setaria faberi); assay: Test A1 preemergence, Foxtail, Giant
Procedure, shortened: as §1

[4] = system: goosegrass (Eleusine indica); assay: Test A1 preemergence, goosegrass
Procedure, shortened: as §1

kochia (Bassia scoparia) [5] = assay: Test A1 preemergence, kochia
Procedure, shortened: as §1

[6] = system: Oat, Wild (wild oat, Avena fatua); assay: Test A1 preemergence, Oat, Wild
Procedure, shortened: as §1

[7] = system: Pigweed, Palmer (palmer amaranth, palmer pigweed, Amaranthus palmeri); assay: Test A1 preemergence, Pigweed, Palmer
Procedure, shortened: as §1

[8] = system: ragweed (common ragweed, Ambrosia artemisiifolia); assay: Test A1 preemergence, ragweed
Procedure, shortened: as §1

[9] = system: Ryegrass, Italian (Italian ryegrass, Lolium multiflorum); assay: Test A1 preemergence, Ryegrass, Italian
Procedure, shortened: as §1

soybean (Glycine max) [10] = assay: Test A1 preemergence, soybean
Procedure, shortened: as §1

[11] = system: wheat (Triticum aestivum); assay: Test A1 preemergence, wheat
Procedure, shortened: as §1

[12] = system: blackgrass (Alopecurus myosuroides); assay: Test A1 postemergence, blackgrass; conditions: Postemergence, 0 to 100 scale (0 no effect, 100 complete control)
Procedure, shortened: as §1

corn (Zea mays) [13] = assay: Test A1 postemergence, corn; conditions: Postemergence
Procedure, shortened: as §1

[14] = system: Foxtail, Giant (giant foxtail, Setaria faberi); assay: Test A1 postemergence, Foxtail, Giant; conditions: Postemergence
Procedure, shortened: as §1

[15] = system: goosegrass (Eleusine indica); assay: Test A1 postemergence, goosegrass; conditions: Postemergence
Procedure, shortened: as §1

kochia (Bassia scoparia) [16] = assay: Test A1 postemergence, kochia; conditions: Postemergence
Procedure, shortened: as §1

[17] = system: Oat, Wild (wild oat, Avena fatua); assay: Test A1 postemergence, Oat, Wild; conditions: Postemergence
Procedure, shortened: as §2

[18] = system: Pigweed, Palmer (palmer amaranth, palmer pigweed, Amaranthus palmeri); assay: Test A1 postemergence, Pigweed, Palmer; conditions: Postemergence
Procedure, shortened: as §2

[19] = system: ragweed (common ragweed, Ambrosia artemisiifolia); assay: Test A1 postemergence, ragweed; conditions: Postemergence
Procedure, shortened: as §2

[20] = system: Ryegrass, Italian (Italian ryegrass, Lolium multiflorum); assay: Test A1 postemergence, Ryegrass, Italian; conditions: Postemergence
Procedure, shortened: as §1

soybean (Glycine max) [21] = assay: Test A1 postemergence, soybean; conditions: Postemergence
Procedure, shortened: as §1

[22] = system: wheat (Triticum aestivum); assay: Test A1 postemergence, wheat; conditions: Postemergence
Procedure, shortened: as §1

[23] = system: galium (catchweed bedstraw, Galium aparine); assay: Test A1 postemergence, galium; conditions: Postemergence
Procedure, shortened: as §1

[24] = system: horseweed (Erigeron canadensis); assay: Test A1 postemergence, horseweed; conditions: Postemergence
Procedure, shortened: as §1

[25] = system: barnyardgrass (Echinochloa crus-galli); assay: Test B1 flooded paddy test, barnyardgrass; conditions: 250 g ai/ha, Flood, applied to paddy water, 2-leaf stage, visually evaluated after 10 to 14 days
Excerpt: (§3) A dash (-) response means no test result.

[26] = system: ducksalad (Heteranthera limosa); assay: Test B1 flooded paddy test, ducksalad; conditions: 250 g ai/ha, Flood, applied to paddy water, 2-leaf stage, visually evaluated after 10 to 14 days
Excerpt: as §3

rice (Oryza sativa) = assay: Test B1 flooded paddy test, rice; conditions: 250 g ai/ha, Flood, applied to paddy water, 2-leaf stage, visually evaluated after 10 to 14 days
Excerpt: as §3

[27] = 31 g ai/ha, 0 to 100 scale (0 no effect, 100 complete control)
[28] = 125 g ai/ha, 0 to 100 scale, 0 no effect, 100 complete control
[29] = 31 g ai/ha, 0 to 100 scale (0 no effect, 100 complete control), 10 days

Cc1cc(C2CC2)c(C2=NOC3CCCC23)cc1NS(=O)(=O)C(F)(F)F (stereo not drawn) [Compound 307]
80: Plant response rating, Goosegrass [4, 27] | Plant response rating, Pigweed, Palmer [7, 28] | Plant response rating, Wheat [11, 28] | Plant response rating, Goosegrass ([15]; 125 g ai/ha, 0 to 100 scale) | Plant response rating, Ragweed ([19]; 125 g ai/ha, 0 to 100 scale) | Plant response rating, Ryegrass, Italian ([20]; 125 g ai/ha, 0 to 100 scale) | Plant response rating, Horseweed ([24]; 125 g ai/ha, 0 to 100 scale)
0: Plant response rating, Blackgrass [1, 27] | Plant response rating, Corn (corn (Zea mays) [2]; [27]) | Plant response rating, Corn (corn (Zea mays) [2]; [28]) | Plant response rating, Kochia (kochia (Bassia scoparia) [5]; [27]) | Plant response rating, Oat, Wild [6, 27] | Plant response rating, Ragweed [8, 27] | Plant response rating, Soybean (soybean (Glycine max) [10]; [27]) | Plant response rating, Blackgrass ([12]; 31 g ai/ha, 10 days) | Plant response rating, Corn (corn (Zea mays) [13]; [29]) | Plant response rating, Corn (corn (Zea mays) [13]; 125 g ai/ha, 0 to 100 scale) | Plant response rating, Kochia (kochia (Bassia scoparia) [16]; [29]) | Plant response rating, Oat, Wild [17, 29] | Plant response rating, Pigweed, Palmer [18, 29] | Plant response rating, Ragweed [19, 29] | Plant response rating, Rice (0 to 100 scale, 0 is no effect, 100 is complete control) (rice (Oryza sativa))
50: Plant response rating, Blackgrass [1, 28] | Plant response rating, Foxtail, Giant [3, 27] | Plant response rating, Ryegrass, Italian [9, 27] | Plant response rating, Soybean (soybean (Glycine max) [21]; 125 g ai/ha, 0 to 100 scale)
70: Plant response rating, Ducksalad (0 to 100 scale, 0 is no effect, 100 is complete control) [26]
40: Plant response rating, Oat, Wild [6, 28] | Plant response rating, Foxtail, Giant ([14]; 125 g ai/ha, 0 to 100 scale) | Plant response rating, Pigweed, Palmer ([18]; 125 g ai/ha, 0 to 100 scale) | Plant response rating, Wheat ([22]; 125 g ai/ha, 0 to 100 scale) | Plant response rating, Galium [23, 29]
10: Plant response rating, Kochia (kochia (Bassia scoparia) [5]; [28]) | Plant response rating, Wheat [11, 27] | Plant response rating, Blackgrass ([12]; 125 g ai/ha) | Plant response rating, Soybean (soybean (Glycine max) [21]; [29])
100: Plant response rating, Foxtail, Giant [3, 28] | Plant response rating, Goosegrass [4, 28] | Plant response rating, Ryegrass, Italian [9, 28]
20: Plant response rating, Foxtail, Giant [14, 29] | Plant response rating, Oat, Wild ([17]; 125 g ai/ha, 0 to 100 scale) | Plant response rating, Ryegrass, Italian [20, 29]
30: Plant response rating, Pigweed, Palmer [7, 27] | Plant response rating, Soybean (soybean (Glycine max) [10]; [28]) | Plant response rating, Goosegrass [15, 29] | Plant response rating, Kochia (kochia (Bassia scoparia) [16]; 125 g ai/ha, 0 to 100 scale) | Plant response rating, Wheat [22, 29] | Plant response rating, Horseweed [24, 29]
60: Plant response rating, Ragweed [8, 28] | Plant response rating, Galium ([23]; 125 g ai/ha, 0 to 100 scale) | Plant response rating, Barnyardgrass (0 to 100 scale, 0 is no effect, 100 is complete control) [25]

Cc1cc(C2CC2)c(NS(=O)(=O)C(F)(F)F)cc1C1=NOC2(CCCC2)C1 [Compound 313]
40: Plant response rating, Foxtail, Giant [3, 28]
0: Plant response rating, Blackgrass [1, 27] | Plant response rating, Blackgrass [1, 28] | Plant response rating, Corn (corn (Zea mays) [2]; [27]) | Plant response rating, Corn (corn (Zea mays) [2]; [28]) | Plant response rating, Foxtail, Giant [3, 27] | Plant response rating, Goosegrass [4, 27] | Plant response rating, Kochia (kochia (Bassia scoparia) [5]; [27]) | Plant response rating, Kochia (kochia (Bassia scoparia) [5]; [28]) | Plant response rating, Oat, Wild [6, 27] | Plant response rating, Oat, Wild [6, 28] | Plant response rating, Pigweed, Palmer [7, 27] | Plant response rating, Ragweed [8, 27] | Plant response rating, Ragweed [8, 28] | Plant response rating, Soybean (soybean (Glycine max) [10]; [27]) | Plant response rating, Soybean (soybean (Glycine max) [10]; [28]) | Plant response rating, Wheat [11, 27] | Plant response rating, Wheat [11, 28] | Plant response rating, Blackgrass ([12]; 31 g ai/ha, 10 days) | Plant response rating, Blackgrass ([12]; 125 g ai/ha) | Plant response rating, Corn (corn (Zea mays) [13]; [29]) | Plant response rating, Corn (corn (Zea mays) [13]; 125 g ai/ha, 0 to 100 scale) | Plant response rating, Foxtail, Giant [14, 29] | Plant response rating, Foxtail, Giant ([14]; 125 g ai/ha, 0 to 100 scale) | Plant response rating, Goosegrass [15, 29] | Plant response rating, Goosegrass ([15]; 125 g ai/ha, 0 to 100 scale) | Plant response rating, Kochia (kochia (Bassia scoparia) [16]; [29]) | Plant response rating, Oat, Wild [17, 29] | Plant response rating, Oat, Wild ([17]; 125 g ai/ha, 0 to 100 scale) | Plant response rating, Pigweed, Palmer [18, 29] | Plant response rating, Ragweed [19, 29] | Plant response rating, Ragweed ([19]; 125 g ai/ha, 0 to 100 scale) | Plant response rating, Ryegrass, Italian [20, 29] | Plant response rating, Ryegrass, Italian ([20]; 125 g ai/ha, 0 to 100 scale) | Plant response rating, Soybean (soybean (Glycine max) [21]; [29]) | Plant response rating, Wheat [22, 29] | Plant response rating, Wheat ([22]; 125 g ai/ha, 0 to 100 scale) | Plant response rating, Galium [23, 29] | Plant response rating, Horseweed [24, 29] | Plant response rating, Horseweed ([24]; 125 g ai/ha, 0 to 100 scale) | Plant response rating, Barnyardgrass (0 to 100 scale, 0 is no effect, 100 is complete control) [25] | Plant response rating, Ducksalad (0 to 100 scale, 0 is no effect, 100 is complete control) [26] | Plant response rating, Rice (0 to 100 scale, 0 is no effect, 100 is complete control) (rice (Oryza sativa))
20: Plant response rating, Goosegrass [4, 28] | Plant response rating, Pigweed, Palmer [7, 28] | Plant response rating, Kochia (kochia (Bassia scoparia) [16]; 125 g ai/ha, 0 to 100 scale) | Plant response rating, Soybean (soybean (Glycine max) [21]; 125 g ai/ha, 0 to 100 scale)
50: Plant response rating, Ryegrass, Italian [9, 28]
10: Plant response rating, Pigweed, Palmer ([18]; 125 g ai/ha, 0 to 100 scale)
30: Plant response rating, Ryegrass, Italian [9, 27] | Plant response rating, Galium ([23]; 125 g ai/ha, 0 to 100 scale)
